# “Also recorded” adds a separate entry of the source. Like-named read-outs stand apart in the source and are kept apart here.
# Columns and labels:
# [1] = Absorbance and fluorescence of phenol-benzoate derivatives in PBS 7.4; format: physicochemical; settings: for λ maxem [nm] / λ maxex [nm] / ΦFluorescence / ε 400 nm: PBS 7.4; for Relative fluorescence emission: PBS 7.4, relative to 6a; for fluorescence emission intensity relative to parent benzoate without chlorine: 7a vs 6a, 9a vs 8a
# Description: General. […] Fluorescence quantum yield was determined using Hamamatsu Quantaurus-QY.
# To evaluate the substituent effect, numerous phenol-benzoate derivatives with acceptor substituents at ortho and para positions of the phenol were synthesized, and their fluorescent emission in PBS 7.4 were measured. The most significant effect was obtained when an acceptor was incorporated at the ortho position of the phenol. Following broad screen of electron-withdrawing groups, we chose to focus on the chlorine, methyl-acrylate and acrylonitrile substituents. It was previously shown that in order to enable the chemiexcitation mechanism under physiological conditions, a chlorine substituent is introduced at the ortho position of phenolic ring. This electron-withdrawing substituent decreases the pKa of the phenol released after cleavage of the protecting group and thereby enriches the relative concertation of the phenolate species in physiological pH. The methyl-acrylate and acrylonitrile substituents induced the highest increase in fluorescence emission of their corresponded phenol-benzoates. The absorbance and fluorescence spectra of selected phenol-benzoate derivatives are shown in FIG. 11, and their molecular structure and spectroscopic parameters are summarized Table 9.
# [2] = reference compound, known value (Trofimov et al., 1996; Edwards et al., 1994); cited from earlier work
# [3] = Chemiluminescence of adamantylidene-dioxetane luminophores 5b-9b in PBS 7.4; format: physicochemical; settings: for λ maxCL [nm] / chemiluminescence emission signal relative to dioxetane 5b: PBS 7.4; for Relative CL emission: relative to 5b; for chemiluminescence emission signal upon deprotonation: water / PBS 7.4; for ΦCL(H20) %: aqueous, 5b as reference
# β-galactosidase = settings: 1 μM, 1.5 units/mL β-galactosidase; for chemiluminescence emission signal relative to Probe 5: PBS pH 7.4 (10% DMSO), room temp
# Description: Next, we measured the light chemiluminescence emission of the probes, as a function of time, in the presence and in the absence of β-galactosidase.
# Commercially available Emerald-II™ enhancer (10%) was added to Probe 5 in the presence of β-galactosidase (in PBS 7.4) and its chemiluminescence emission was compared to that of Probe 6.
# HEK293-WT cells = experiment: Chemiluminescence microscopy imaging, HEK293-WT control cells; format: cell-based; settings: 5 μM, 20 min incubation (Study 2)
# Description: (§1) Images were obtained following 20 min incubation with cell culture medium containing Probe 3 (5 μM).
# (§2) Images were obtained following 20 min incubation with cell culture medium containing Probe 7 (5 μM). Images were taken by the LV200 Olympus-microscope using 60× objective and 40s exposure time.
# (§3) Chemiluminescence microscopy imaging of β-galactosidase activity. Chemiluminescence images were acquired using Olympus LV200 inverted microscope fitted with an EMCCD camera (Hamamatsu C9100-13). HEK293 LacZ stable cells (amsbio SC003) and HEK293-WT cells (control) were grown on 35 mm glass bottom petri dishes at 37° C. for 24 h. Cell culture medium was changed to Molecular Probes® Live Cell Imaging Solution containing 5 μM of Probe 3. Cells were incubated for another 20 minutes at 37° C. Thereafter, images were recorded with 20 minutes exposure time.
# as §3, with “Chemiluminescence” for “Chemiluminescence microscopy imaging of β-galactosidase activity. Chemiluminescence”, “of probe 4.” for “of Probe 3.”, “with 40 seconds” for “with 20 minutes”
# HEK293-LacZ stable cells = experiment: Chemiluminescence microscopy imaging of β-galactosidase activity in HEK293-LacZ cells; format: cell-based; settings: 5 μM, 20 min incubation, 60× objective, seconds exposure (Study 2)
# Description: as §1, §2, §3
# To improve the image quality, the HEK293-LacZ cells were fixed by using 4% formaldehyde and permeabilized with 0.1% Triton X-100. The cells were then incubated with Probe 3 and imaged by the microscope using a 60× objective (NA 1.42).
# Chemiluminescence images were acquired using Olympus LV200 inverted microscope fitted with an EMCCD camera (Hamamatsu C9100-13). […] Thereafter, images were recorded with 40 seconds exposure time.
# Aqueous solubility = format: physicochemical
# [4] = Chemiluminescence detection of hydrogen peroxide by Probe 10; format: biochemical
# Description: (§4) On the left—a comparison between light emission observed by Probe 10 (1 mM; left vial) to that observed by Luminol (1 mM; right vial) upon incubation with hydrogen peroxide under aqueous conditions at pH 10. Probe 12 is a chemiluminescence for detection of GSH.
# (§5) FIGS. 15A-15B show (15A) total light emitted from Probe 10 (100 μM), Probe 11 (10 μM) and Probe 12 (10 μM) in the presence of hydrogen peroxide (1 mM), alkaline phosphatase (AP) (1.5 EU/ml) or glutathione (1 mM). Measurements were conducted in PBS (100 mM), pH 7.4, with 10% DMSO at RT; and (15B) total light emitted from Probe 10 (500 μM), Probe 11 (500 μM) and Probe 12 (10 μM) in PBS (100 mM), pH 7.4 with 10% DMSO over a period of 1 h, with various concentration of the corresponding stimulus. A detection limit (blank control+3 SD) was determined for each probe.
# (§6) The activation of our chemiluminescence probes is based on removal of a protecting group from the phenolic moiety. Therefore, different phenol-protecting groups could be incorporated as triggering substrates for various analytes/enzymes (Redy-Keisar et al., 2014). […] Probe 10 was equipped with boronic-ester as a substrate for hydrogen peroxide, Probe 11 with phosphate group as a substrate for alkaline-phosphatase and Probe 12 with dinitro-benzene-sulfonyl group as a substrate for GSH (FIG. 14). The probes were prepared with an acrylic acid or methyl acrylate substituent at the ortho position of the phenolic oxygen. […] As described above, the probes decompose upon their activation to release the excited state of the coresponed benzoate. The acrylate substituent efficiently increases the emissive nature of the released benzoate to produce strong light emission, clearly visible to the naked eye.
# (§7) To evaluate the sensitively and selectivity of Probes 10, 11 and 12 to detect their corresponded analyte/enzyme, we determined the probes' limit of detection (LOD). […] Probe 10 could detect hydrogen peroxide with an LOD value of 30 nM, Probe 11 could detect alkaline-phosphatase with an LOD value of 3.9 μU/ml and Probe 12 could detect GSH with an LOD value of 1.7 μM.
# [5] = test system: alkaline phosphatase (AP); experiment: Chemiluminescence detection of alkaline phosphatase by Probe 11; format: biochemical
# Description: as §4
# as §5, with “[…];” for “Measurements were conducted in PBS (100 mM), pH 7.4, with 10% DMSO at RT;”
# as §6, §7
# [6] = Chemiluminescence detection of glutathione by Probe 12; format: biochemical
# Description: as §5
# The activation of our chemiluminescence probes is based on removal of a protecting group from the phenolic moiety. Therefore, different phenol-protecting groups could be incorporated as triggering substrates for various analytes/enzymes (Redy-Keisar et al., 2014). […] Probe 10 was equipped with boronic-ester as a substrate for hydrogen peroxide, Probe 11 with phosphate group as a substrate for alkaline-phosphatase and Probe 12 with dinitro-benzene-sulfonyl group as a substrate for GSH (FIG. 14). The probes were prepared with an acrylic acid or methyl acrylate substituent at the ortho position of the phenolic oxygen. […]
# To evaluate the sensitively and selectivity of Probes 10, 11 and 12 to detect their corresponded analyte/enzyme, we determined the probes' limit of detection (LOD). […]
# [7] = 500 μM probe, PBS (100 mM) pH 7.4, 10% DMSO, 1 h, blank control+3 SD
smiles,measurement,setting,value
"COC(=O)c1cccc(O)c1 [Benzoate 4a, reference compound]",λ maxem [nm],[1],470 nm
same,λ maxex [nm],[1],290 nm
same,Relative fluorescence emission,[1],do not present any measurable fluorescence; also recorded: negligible
"COC(=O)c1cccc(O)c1Cl [Benzoate 5a, reference compound]",λ maxem [nm],[1],470 nm
same,λ maxex [nm],[1],290 nm
same,Relative fluorescence emission,[1],do not present any measurable fluorescence; also recorded: Negligible
COC(=O)/C=C/c1ccc(C(=O)OC)cc1O [Benzoate 6a],ΦFluorescence,[1],0.5%
same,ε 400 nm,[1],1200
same,λ maxem [nm],[1],550 nm
same,λ maxex [nm],[1],400 nm
same,Relative fluorescence emission,[1],1
COC(=O)/C=C/c1ccc(C(=O)OC)c(Cl)c1O [Benzoate 7a],fluorescence emission intensity relative to parent benzoate without chlorine,[1],about 10 fold
same,ΦFluorescence,[1],5.2%
same,ε 400 nm,[1],7400
same,λ maxem [nm],[1],550 nm
same,λ maxex [nm],[1],400 nm
same,Relative fluorescence emission,[1],10.6
COC(=O)c1ccc(/C=C/C#N)c(O)c1 [Benzoate 8a],ΦFluorescence,[1],7%
same,ε 400 nm,[1],2200
same,λ maxem [nm],[1],525 nm
same,λ maxex [nm],[1],400 nm
same,Relative fluorescence emission,[1],4.7
COC(=O)c1ccc(/C=C/C#N)c(O)c1Cl [Benzoate 9a],fluorescence emission intensity relative to parent benzoate without chlorine,[1],about 4 fold
same,ΦFluorescence,[1],29.8%
same,ε 400 nm,[1],7700
same,λ maxem [nm],[1],525 nm
same,λ maxex [nm],[1],400 nm
same,Relative fluorescence emission,[1],18.0
"COC1(c2cccc(O)c2Cl)OOC12C1CC3CC(C1)CC2C3 (stereo not shown) [Phenol 5b, reference compound]",ΦCL(H20) %,[2],3.2×10^−3%
same,λ maxCL [nm],[3],470 nm
same,Relative CL emission,[3],1
same,chemiluminescence emission signal upon deprotonation,[3],extremely weak
COC(=O)/C=C/c1ccc(C2(OC)OOC23C2CC4CC(C2)CC3C4)cc1O (stereo not shown) [Phenol 6b],chemiluminescence emission signal relative to dioxetane 5b,[3],about 700 fold
same,λ maxCL [nm],[3],540 nm
same,ΦCL(H20) %,[3],2.3%
same,Relative CL emission,[3],724
same,chemiluminescence emission signal upon deprotonation,[3],remarkably strong chemiluminescence emission signal
COC(=O)/C=C/c1ccc(C2(OC)OOC23C2CC4CC(C2)CC3C4)c(Cl)c1O (stereo not shown) [Phenol 7b],λ maxCL [nm],[3],540 nm
same,ΦCL(H20) %,[3],2.5%
same,Relative CL emission,[3],780
same,chemiluminescence emission signal upon deprotonation,[3],remarkably strong chemiluminescence emission signal
COC1(c2ccc(/C=C/C#N)c(O)c2)OOC12C1CC3CC(C1)CC2C3 (stereo not shown) [Phenol 8b],λ maxCL [nm],[3],525 nm
same,ΦCL(H20) %,[3],7.4%
same,Relative CL emission,[3],2295
same,chemiluminescence emission signal upon deprotonation,[3],remarkably strong chemiluminescence emission signal
COC1(c2ccc(/C=C/C#N)c(O)c2Cl)OOC12C1CC3CC(C1)CC2C3 (stereo not shown) [Phenol 9b],chemiluminescence emission signal relative to dioxetane 5b,[3],about 3000 fold
same,λ maxCL [nm],[3],525 nm
same,ΦCL(H20) %,[3],9.8%
same,Relative CL emission,[3],3043
same,chemiluminescence emission signal upon deprotonation,[3],remarkably strong chemiluminescence emission signal
COC(=O)/C=C/c1ccc(C2(OC)OOC23C2CC4CC(C2)CC3C4)cc1OCc1ccc(O[C@@H]2OC(CO)[C@H](O)C(O)C2O)cc1 (stereo partly shown) [Probe 6],chemiluminescence emission signal relative to Probe 5,β-galactosidase,about 500 fold
COC(=O)/C=C/c1ccc(C2(OC)OOC23C2CC4CC(C2)CC3C4)c(Cl)c1OCc1ccc(O[C@@H]2OC(CO)[C@H](O)C(O)C2O)cc1 (stereo partly shown) [Probe 7],chemiluminescence signal of HEK293-WT cells,HEK293-WT cells,No chemiluminescence signal at all was observed
same,chemiluminescence images of HEK293-LacZ cells,HEK293-LacZ stable cells,high quality chemiluminescence images; also recorded: excellent chemiluminescence cell images
COC1(c2ccc(/C=C/C#N)c(OCc3ccc(O[C@@H]4OC(CO)[C@H](O)C(O)C4O)cc3)c2Cl)OOC12C1CC3CC(C1)CC2C3 (stereo partly shown) [Probe 9],chemiluminescence emission signal relative to Probe 5 with Emerald-II™ enhancer,β-galactosidase; PBS 7.4 (10% DMSO),more than 8 fold
same,chemiluminescence emission signal relative to Probe 5,β-galactosidase,about 1800 fold
COC1(c2ccc(/C=C/C(=O)O)c(B3OC(C)(C)C(C)(C)O3)c2)OOC12C1CC3CC(C1)CC2C3 (stereo not shown) [Probe 10],aqueous solubility,Aqueous solubility,increased significantly
same,LOD for hydrogen peroxide,[4]; [7],30 nM
same,luminescence upon reaction with analyte,"[4]; 1 mM, pH 10",bright green luminescence
same,selectivity towards analyte of choice,"[4]; vs alkaline phosphatase and glutathione, physiological conditions",very good selectivity
COC1(c2ccc(/C=C/C(=O)O)c(OP(=O)(O)O)c2)OOC12C1CC3CC(C1)CC2C3 (stereo not shown) [Probe 11],LOD for alkaline-phosphatase,[5]; [7],3.9 μU/ml
same,luminescence upon reaction with enzyme,"[5]; 1 mM, pH 10",bright green luminescence
same,selectivity towards analyte of choice,"[5]; vs hydrogen peroxide and glutathione, physiological conditions",very good selectivity
same,aqueous solubility,Aqueous solubility,increased significantly
COC(=O)/C=C/c1ccc(C2(OC)OOC23C2CC4CC(C2)CC3C4)cc1OCc1ccc(NS(=O)(=O)c2ccc([N+](=O)[O-])cc2[N+](=O)[O-])cc1 (stereo not shown) [Probe 12],LOD for GSH,"[6]; 10 μM probe, PBS (100 mM) pH 7.4, 10% DMSO, 1 h, blank control+3 SD",1.7 µM
same,selectivity towards analyte of choice,"[6]; vs hydrogen peroxide and alkaline phosphatase, physiological conditions",very good selectivity
same,aqueous solubility,Aqueous solubility,relatively moderate aqueous solubility
same,applicable concentration range,Aqueous solubility; aqueous,1 to 10 µM

# — patent US11931429B2, “Chemiluminescent probes for diagnostics and in vivo imaging” (RAMOT AT TEL-AVIV UNIVERSITY LTD., priority 2016, dated 2024)
